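Five concentrations, 48 hours, 96-well plates. GI50 = concentration required for 50% inhibition of growth.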 The source made the active and inactive calls. Cut-off read from the data, not from the text of the source: active = GI50 up to about 1.1 µM and inactive = higher.
Tests used:
Assay in all cases: NCI-60 cell line screen, 48 h
A498 = test system: A498
A549 = test system: A549
ACHN = test system: ACHN
CAKI-1 = test system: CAKI-1
CCRF-CEM = test system: CCRF-CEM
COLO 205 = test system: COLO 205
DMS-114 = test system: DMS-114
DMS-273 = test system: DMS-273
EKVX = test system: EKVX
HCC 2998 = test system: HCC 2998
HCT-116 = test system: HCT-116
HCT-15 = test system: HCT-15
HL-60 = test system: HL-60
HOP-18 = test system: HOP-18
HOP-62 = test system: HOP-62
HOP-92 = test system: HOP-92
HT-29 = test system: HT-29
IGROV-1 = test system: IGROV-1
K562 = test system: K562
KM-20L2 = test system: KM-20L2
KM12 = test system: KM12
LXFL 529 = test system: LXFL 529
M14 = test system: M14
M19-MEL = test system: M19-MEL
MOLT-4 = test system: MOLT-4
Malme-3M = test system: Malme-3M
NCI-H23 = test system: NCI-H23
NCI-H460 = test system: NCI-H460
NCI-H522 = test system: NCI-H522
OVCAR-3 = test system: OVCAR-3
OVCAR-4 = test system: OVCAR-4
OVCAR-5 = test system: OVCAR-5
OVCAR-8 = test system: OVCAR-8
RPMI-8226 = test system: RPMI-8226
RXF 631 = test system: RXF 631
SF-268 = test system: SF-268
SF-295 = test system: SF-295
SF-539 = test system: SF-539
SK-MEL-28 = test system: SK-MEL-28
SK-MEL-2 = test system: SK-MEL-2
SK-MEL-5 = test system: SK-MEL-5
SK-OV-3 = test system: SK-OV-3
SN12C = test system: SN12C
SNB-19 = test system: SNB-19
SNB-75 = test system: SNB-75
SNB-78 = test system: SNB-78
SR = test system: SR
SW-620 = test system: SW-620
TK-10 = test system: TK-10
U-251 = test system: U-251
UACC-257 = test system: UACC-257
UACC-62 = test system: UACC-62
UO-31 = test system: UO-31
XF498 = test system: XF498
DLD-1 = test system: DLD-1
LOX IMVI = test system: LOX IMVI
NCI-H226 = test system: NCI-H226
RXF 393 = test system: RXF 393
786-0 = test system: 786-0

`Cc1ccc(CCC(=O)C(=O)O)s1` was tested, and the GI50 (A498) was 89.5 µM (inactive), the GI50 (A549) was > 100 µM (inactive) and the GI50 (ACHN) was > 100 µM (inactive). For the same compound, the GI50 (CAKI-1) was 30.9 µM (inactive), the GI50 (CCRF-CEM) was > 100 µM (inactive) and the GI50 (COLO 205) was > 100 µM (inactive). For the same compound, the GI50 (DMS-114) was > 100 µM (inactive), the GI50 (DMS-273) was > 100 µM (inactive) and the GI50 (EKVX) was > 100 µM (inactive). For the same compound, the GI50 (HCC 2998) was > 100 µM (inactive), the GI50 (HCT-116) was 41 µM (inactive) and the GI50 (HCT-15) was > 100 µM. For the same compound, the GI50 (HL-60) was > 100 µM (inactive), the GI50 (HOP-18) was > 100 µM (inactive) and the GI50 (HOP-62) was > 100 µM (inactive). For the same compound, the GI50 (HOP-92) was > 100 µM (inactive), the GI50 (HT-29) was > 100 µM (inactive) and the GI50 (IGROV-1) was > 100 µM (inactive). The GI50 (K562) was > 100 µM (inactive), the GI50 (KM-20L2) was > 100 µM (inactive) and the GI50 (KM12) was > 100 µM (inactive). For the same compound, the GI50 (LXFL 529) was > 100 µM (inactive), the GI50 (M14) was > 100 µM (inactive) and the GI50 (M19-MEL) was > 100 µM (inactive). For the same compound, the GI50 (MOLT-4) was > 100 µM (inactive), the GI50 (Malme-3M) was > 100 µM (inactive) and the GI50 (NCI-H23) was > 100 µM (inactive). For the same compound, the GI50 (NCI-H460) was > 100 µM (inactive), the GI50 (NCI-H522) was > 100 µM (inactive) and the GI50 (OVCAR-3) was > 100 µM (inactive). For the same compound, the GI50 (OVCAR-4) was > 100 µM (inactive), the GI50 (OVCAR-5) was > 100 µM (inactive) and the GI50 (OVCAR-8) was > 100 µM (inactive). For the same compound, the GI50 (RPMI-8226) was > 100 µM (inactive), the GI50 (RXF 631) was > 100 µM (inactive) and the GI50 (SF-268) was > 100 µM (inactive). For the same compound, the GI50 (SF-295) was > 100 µM (inactive), the GI50 (SF-539) was > 100 µM (inactive) and the GI50 (SK-MEL-28) was > 100 µM (inactive). For the same compound, the GI50 (SK-MEL-2) was > 100 µM (inactive), the GI50 (SK-MEL-5) was > 100 µM (inactive) and the GI50 (SK-OV-3) was > 100 µM (inactive). The GI50 (SN12C) was > 100 µM (inactive), the GI50 (SNB-19) was > 100 µM (inactive) and the GI50 (SNB-75) was > 100 µM (inactive). The GI50 (SNB-78) was > 100 µM (inactive), the GI50 (SR) was > 100 µM (inactive) and the GI50 (SW-620) was > 100 µM (inactive). The GI50 (TK-10) was 78.7 µM (inactive), the GI50 (U-251) was 81.7 µM (inactive) and the GI50 (UACC-257) was > 100 µM (inactive). For the same compound, the GI50 (UACC-62) was 19.4 µM (inactive), the GI50 (UO-31) was > 100 µM (inactive) and the GI50 (XF498) was > 100 µM (inactive).
In the case of `COc1ccc(C2N(NC(=O)c3ccncc3)C(=O)CS2(=O)=O)cc1F` (stereo not drawn), the GI50 (A498) is reported as > 100 µM (inactive), the GI50 (A549) is reported as > 100 µM (inactive) and the GI50 (ACHN) is reported as > 100 µM (inactive). For the same compound, the GI50 (CAKI-1) was > 100 µM (inactive), the GI50 (CCRF-CEM) was > 100 µM (inactive) and the GI50 (COLO 205) was > 100 µM (inactive). The GI50 (DLD-1) was > 100 µM (inactive), the GI50 (DMS-114) was > 100 µM (inactive) and the GI50 (DMS-273) was > 100 µM (inactive). For the same compound, the GI50 (HCC 2998) was > 100 µM (inactive), the GI50 (HCT-116) was > 100 µM (inactive) and the GI50 (HCT-15) was > 100 µM. For the same compound, the GI50 (HL-60) was > 100 µM (inactive), the GI50 (HOP-18) was > 100 µM (inactive) and the GI50 (HOP-62) was > 100 µM (inactive). The GI50 (HOP-92) was > 100 µM (inactive), the GI50 (HT-29) was > 100 µM (inactive) and the GI50 (KM12) was > 100 µM (inactive). The GI50 (LOX IMVI) was 60.4 µM (inactive), the GI50 (LXFL 529) was > 100 µM (inactive) and the GI50 (M14) was > 100 µM (inactive). For the same compound, the GI50 (MOLT-4) was 14 µM (inactive), the GI50 (Malme-3M) was > 100 µM (inactive) and the GI50 (NCI-H226) was > 100 µM (inactive). The GI50 (NCI-H23) was > 100 µM (inactive), the GI50 (NCI-H460) was > 100 µM (inactive) and the GI50 (NCI-H522) was 92.3 µM (inactive). The GI50 (OVCAR-4) was > 100 µM (inactive), the GI50 (OVCAR-5) was > 100 µM (inactive) and the GI50 (RPMI-8226) was > 100 µM (inactive). The GI50 (RXF 393) was > 100 µM (inactive), the GI50 (RXF 631) was > 100 µM (inactive) and the GI50 (SF-268) was > 100 µM (inactive). The GI50 (SF-295) was > 100 µM (inactive), the GI50 (SK-MEL-28) was > 100 µM (inactive) and the GI50 (SK-MEL-2) was > 100 µM (inactive). The GI50 (SK-MEL-5) was > 100 µM (inactive), the GI50 (SK-OV-3) was > 100 µM (inactive) and the GI50 (SN12C) was > 100 µM (inactive). The GI50 (SNB-19) was > 100 µM (inactive), the GI50 (SNB-75) was 37.6 µM (inactive) and the GI50 (SNB-78) was > 100 µM (inactive). For the same compound, the GI50 (SR) was > 100 µM (inactive), the GI50 (SW-620) was > 100 µM (inactive) and the GI50 (TK-10) was > 100 µM (inactive). For the same compound, the GI50 (U-251) was > 100 µM (inactive), the GI50 (UACC-257) was > 100 µM (inactive) and the GI50 (XF498) was > 100 µM (inactive).
In the case of `O=C1CNC(=O)c2[nH]cnc2N1`, the GI50 (786-0) is reported as > 100 µM (inactive), the GI50 (A498) is reported as > 100 µM (inactive) and the GI50 (A549) is reported as > 100 µM (inactive). For the same compound, the GI50 (ACHN) was > 100 µM (inactive), the GI50 (CCRF-CEM) was > 100 µM (inactive) and the GI50 (COLO 205) was > 100 µM (inactive). The GI50 (DLD-1) was > 100 µM (inactive), the GI50 (DMS-114) was > 100 µM (inactive) and the GI50 (DMS-273) was > 100 µM (inactive). For the same compound, the GI50 (EKVX) was > 100 µM (inactive), the GI50 (HCC 2998) was > 100 µM (inactive) and the GI50 (HCT-15) was > 100 µM. For the same compound, the GI50 (HL-60) was > 100 µM (inactive), the GI50 (HOP-18) was > 100 µM (inactive) and the GI50 (HT-29) was > 100 µM (inactive). For the same compound, the GI50 (IGROV-1) was > 100 µM (inactive), the GI50 (K562) was 82.6 µM (inactive) and the GI50 (KM12) was > 100 µM (inactive). The GI50 (LOX IMVI) was > 100 µM (inactive), the GI50 (LXFL 529) was > 100 µM (inactive) and the GI50 (M14) was > 100 µM (inactive). The GI50 (M19-MEL) was > 100 µM (inactive), the GI50 (MOLT-4) was > 100 µM (inactive) and the GI50 (Malme-3M) was > 100 µM (inactive). The GI50 (NCI-H226) was > 100 µM (inactive), the GI50 (NCI-H23) was > 100 µM (inactive) and the GI50 (NCI-H460) was > 100 µM (inactive). For the same compound, the GI50 (OVCAR-3) was > 100 µM (inactive), the GI50 (OVCAR-4) was > 100 µM (inactive) and the GI50 (OVCAR-5) was > 100 µM (inactive). For the same compound, the GI50 (OVCAR-8) was > 100 µM (inactive), the GI50 (RPMI-8226) was > 100 µM (inactive) and the GI50 (RXF 393) was > 100 µM (inactive). The GI50 (RXF 631) was 39.9 µM (inactive), the GI50 (SF-268) was > 100 µM (inactive) and the GI50 (SF-295) was > 100 µM (inactive). The GI50 (SF-539) was > 100 µM (inactive), the GI50 (SK-MEL-28) was > 100 µM (inactive) and the GI50 (SK-MEL-5) was > 100 µM (inactive). For the same compound, the GI50 (SK-OV-3) was > 100 µM (inactive), the GI50 (SN12C) was > 100 µM (inactive) and the GI50 (SNB-19) was > 100 µM (inactive). For the same compound, the GI50 (SNB-75) was > 100 µM (inactive), the GI50 (SNB-78) was > 100 µM (inactive) and the GI50 (SR) was > 100 µM (inactive). The GI50 (SW-620) was > 100 µM (inactive), the GI50 (TK-10) was > 100 µM (inactive) and the GI50 (U-251) was > 100 µM (inactive). For the same compound, the GI50 (UACC-62) was > 100 µM (inactive), the GI50 (UO-31) was > 100 µM (inactive) and the GI50 (XF498) was 49.3 µM (inactive).

Reference: ChEMBL document CHEMBL1201862, “PubChem BioAssay data set” (2004)
